organism: Rattus norvegicus; experiment: Inhibition of the uterine smooth muscle contraction induced by histamine on the isolated rat uterus at high dose /concentration.; type: functional; details: read-out: ED50 (the source's name)

| SMILES | EC50 [µM] |
| --- | --- |
| NC(=O)c1cn2cc(Br)nc(Br)c2n1 | 0.00033 |

organism: Rattus norvegicus; experiment: Inhibition of the uterine smooth muscle contraction induced by histamine on the isolated rat uterus at high dose; type: functional; details: read-out: ED50 (the source's name)

| SMILES | EC50 [µM] |
| --- | --- |
| COC(=O)c1cn2ccncc2n1 | > 0.0024 |

organism: Rattus norvegicus; experiment: Inhibition of the uterine smooth muscle contraction induced by histamine on the isolated rat uterus at high dose.; type: functional; details: read-out: ED50 (the source's name)

| SMILES | EC50 [nM] |
| --- | --- |
| Nc1nc2cnccn2c1Br | 0.34 |
| N#Cc1cn2cc(Br)nc(Br)c2n1 | 0.09 |

organism: Cavia porcellus; experiment: Inhibition of the bronchospasm induced by histamine in guinea pigat the high concentration / dose; type: functional; details: not given

| SMILES | ED50 [µM] |
| --- | --- |
| ClCc1cn2ccncc2n1 | >0.072 |

organism: Cavia porcellus; experiment: Inhibition of the bronchospasm induced by histamine in guinea pig at the high concentration/dose.; type: functional; details: not given

| SMILES | ED50 [µM] |
| --- | --- |
| CCOC(=O)c1cn2cc(Br)nc(Br)c2n1 | >0.016 |

organism: Rattus norvegicus; experiment: Inhibition of the uterine smooth muscle contraction induced by histamine on the isolated rat uterus; type: functional; details: read-out: ED50 (the source's name)

| SMILES | EC50 [µM] |
| --- | --- |
| c1cn2ccnc2cn1 | 0.0016 |

organism: Rattus norvegicus; experiment: Inhibition of the uterine smooth muscle contraction induced by histamine on the isolated rat uterus.; type: functional; details: read-out: ED50

| SMILES | EC50 [µM] |
| --- | --- |
| CCOC(=O)c1[nH]c2nccnc2c1C | 102 |
| Brc1cncc2nccn12 | 290 |
| CCOC(=O)c1cn2cc(Br)nc(Br)c2n1 | 150 |
| Brc1cn2ccnc2c(Br)n1 | 240 |
| N#Cc1cn2ccncc2n1 | 2380 |
| NC(=O)c1cn2ccncc2n1 | 1500 |
| CCOC(=O)c1c(C)nc2cnccn12 | 152 |
| ClCc1cn2ccncc2n1 | 1400 |
| N#Cc1cn2c(Br)cncc2n1 | 780 |
| NC(=O)c1cn2c(Br)cncc2n1 | 410 |
| CCOC(=O)Cc1cn2cc(Br)nc(Br)c2n1 | 96 |
| CC(=O)c1c(Cl)nc2cnccn12 | 880 |
| CCOC(=O)c1cn2ccncc2n1 | 1110 |
| Cc1cn2ccncc2n1 | 750 |
| CCOC(=O)c1cn2c(Br)cncc2n1 | 1020 |
| O=C(O)c1cn2ccncc2n1 | 1720 |
| OCc1cn2ccncc2n1 | 2700 |
| Cn1c(=O)c2nc[nH]c2n(C)c1=O [THEOPHYLLINE] | 900 |

— ChEMBL document CHEMBL1122804, “Synthesis of imidazo[1,2-a]pyrazine derivatives with uterine-relaxing, antibronchospastic, and cardiac-stimulating properties” (1984)
